Source: PubChem BioAssay AID1963843 (Molecular Pharmacology Branch, DTP, NCI, 2024)
Several values for one entry are separate records, joined by “and”; a condition that tells them apart may be missing. Equal values may be shown once.

System: 616215-338-R-J1-PDC complex spheroid viability
Test: Anticancer human tumor 616215-338-R-J1-PDC patient-derived colon adenocarcinoma cell line growth inhibition [POLQ]
Settings: for viability, T/C: stronger effect = lower value
Experimental: Multicellular complex tumor spheroid response to Polymerase (POL) inhibitors (novobiocin, ART-558, RP6685) in combination with a variety of drugs and investigational agents in selected tumor cell lines
The POL inhibitors (novobiocin, ART-558, and RP6685) were evaluated both individually and in combination with standard of care and investigational anticancer small molecules within a complex spheroid model of solid tumors. . Complex spheroids include a stromal component modeled by human endothelial cells (HUVEC) and fibroblasts modeled by human mesenchymal stem cells (MSCs). The concentration ranges selected for each drug and investigational agent were based upon clinically achievable concentrations if the clinical Cmax of the agent was known.
Compounds. The drugs and investigational agents: novobiocin (NSC847541), ART-558 (NSC835418), RP-6685 (NSC848927), peposertib (NSC802822), ceralasertib (NSC780249), elimusertib (NSC800525), camonsertib (NSC841442), AZD-1390 (NSC803789), olaparib (NSC753686), talazoparib (NSC767125), rucaparib (NSC756644), sotorasib (NSC818433), MRTX-1133 (NSC836407), SN-38 (NSC673596), topotecan (NSC609699), epotoside (NSC141540), doxorubicin (NSC123127), gemcitabine (NSC613327), 5-fluorouracil (NSC19893), paclitaxel (NSC125973), vemurafenib (NSC761431), MSA-2 (NSC828583), SN-011 (NSC837082), adavosertib (NSC754352), prexasertib (NSC758257), carboplatin (NSC241240) and oxaliplatin (NSC266046), were obtained from the National Cancer Institute (NCI) Developmental Therapeutics Program Chemical Repository (21). The FDA-approved anticancer drug set is available from the Developmental Therapeutics Program at https://dtp.cancer.gov/organization/dscb/obtaining/. […] The stock solutions were prepared in dimethyl sulfoxide (DMSO, Sigma-Aldrich, St. Louis, MO, cat. D2650), except for the platinum compounds which were prepared in saline (Quality Biological, Gaithersburg, MD, cat. 114-055-101), at 800-fold the tested concentration and stored at -70 degrees C prior to their use. All drugs and investigational agents were tested over a range starting from a high concentration at or near the clinical Cmax and decreasing in half-log increments. If the clinical Cmax for an agent had not been determined, the highest concentration tested was 10 microM, except for SN-38, which was tested at a high concentration of 1 microM.
Cell Culture. All cells were maintained in an incubator at 37 degrees C and 5% CO2 with 95% humidity. The PDC lines were cultured according to standard operating procedures established by the NCI PDMR (https://pdmr.cancer.gov). Table 3 of the manuscript, lists the cell lines along with the number of the three cell types plated to form the mct-spheroids and media for tumor cell growth. After thawing, all PDC lines, except 997537-175-T-J1-PDC and 415267-285-R-J2-PDC, were cultured in Matrigel-coated flasks prepared with a working solution of 1X Ham's F-12 nutrient mix, without supplementation (Thermo Fisher Scientific, cat. 11765054), 100 U/mL penicillin-streptomycin (Thermo Fisher Scientific, cat. 15140122), and 2.5% Matrigel (Corning Inc., Corning, NY, cat. 354248) for the first three passages. The two PDC lines 997537-175-T-J1-PDC and 415267-285-R-J2-PDC were cultured on uncoated flasks. The 857933-349-R-J2-PDC line was cultured in 6C/Colon 1B media containing advanced DMEM/F-12 (Thermo Fisher Scientific, cat. 12634028), 10 mM HEPES (Thermo Fisher Scientific, cat. 15630080), 1X GlutaMAX supplement (Thermo Fisher Scientific, cat. 35050061), 0.1 mg/mL primocin (InvivoGen, San Diego, CA, cat. ant-pm-2), 10% defined fetal bovine serum, heat inactivated (HyClone Laboratories Inc., Logan, UT, cat. SH30070.03HI), 50% L-WRN conditioned media (ATCC, cat. CRL-3276), 1.25 mM N-Acetyl-L-cysteine (Sigma-Aldrich, cat. A9165), 10 mM nicotinamide (Sigma-Aldrich, cat. N0636), 1X B-27 supplement (Thermo Fisher Scientific, cat. 17504044), 1X N-2 supplement (Thermo Fisher Scientific, cat. […]
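Also: spheroids exposed to compounds for one week before readout.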
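For viability, T/C in this document: percent viability relative to DMSO vehicle wells taken as 100%.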

## CC(C)n1c(=O)n(C)c2cnc3cc(F)c(-c4ccc(OCCCN5CCCCC5)nc4)cc3c21 + Nc1ccc(C#CCN(C(=O)Cc2ncc(C(F)(F)F)cc2C(F)(F)F)c2ccc(F)cc2)nn1
Curve of first compound, second compound 0.0316 µM
  IC50: > 10 µM
Curve of first compound, second compound 0.1 µM
  IC50: > 10 µM
Curve of first compound, second compound 0.316 µM
  IC50: > 10 µM
Curve of first compound, second compound 1 µM
  IC50: > 10 µM
Curve of first compound, second compound 3.16 µM
  IC50: > 10 µM
Curve of first compound, second compound 10 µM
  IC50: > 10 µM
Second compound 0.0316 µM, first compound 0.0316 µM
  viability, T/C: 95%
Second compound 0.0316 µM, first compound 0.1 µM
  viability, T/C: 92.2%
Second compound 0.0316 µM, first compound 0.316 µM
  viability, T/C: 103%
Second compound 0.0316 µM, first compound 1 µM
  viability, T/C: 101%
Second compound 0.0316 µM, first compound 3.16 µM
  viability, T/C: 111%
Second compound 0.0316 µM, first compound 10 µM
  viability, T/C: 103%
Second compound 0.1 µM, first compound 0.0316 µM
  viability, T/C: 93.2%
Second compound 0.1 µM, first compound 0.1 µM
  viability, T/C: 110%
Second compound 0.1 µM, first compound 0.316 µM
  viability, T/C: 110%
Second compound 0.1 µM, first compound 1 µM
  viability, T/C: 89.4%
Second compound 0.1 µM, first compound 3.16 µM
  viability, T/C: 103%
Second compound 0.1 µM, first compound 10 µM
  viability, T/C: 96.4%
Second compound 0.316 µM, first compound 0.0316 µM
  viability, T/C: 96.8%
Second compound 0.316 µM, first compound 0.1 µM
  viability, T/C: 97.5%
Second compound 0.316 µM, first compound 0.316 µM
  viability, T/C: 99.5%
Second compound 0.316 µM, first compound 1 µM
  viability, T/C: 97.1%
Second compound 0.316 µM, first compound 3.16 µM
  viability, T/C: 97.7%
Second compound 0.316 µM, first compound 10 µM
  viability, T/C: 99.2%
Second compound 1 µM, first compound 0.0316 µM
  viability, T/C: 107%
Second compound 1 µM, first compound 0.1 µM
  viability, T/C: 99.8%
Second compound 1 µM, first compound 0.316 µM
  viability, T/C: 83.1%
Second compound 1 µM, first compound 1 µM
  viability, T/C: 104%
Second compound 1 µM, first compound 3.16 µM
  viability, T/C: 97.4%
Second compound 1 µM, first compound 10 µM
  viability, T/C: 86.8%
Second compound 3.16 µM, first compound 0.0316 µM
  viability, T/C: 112%
Second compound 3.16 µM, first compound 0.1 µM
  viability, T/C: 97.8%
Second compound 3.16 µM, first compound 0.316 µM
  viability, T/C: 84.7%
Second compound 3.16 µM, first compound 1 µM
  viability, T/C: 90.6%
Second compound 3.16 µM, first compound 3.16 µM
  viability, T/C: 117%
Second compound 3.16 µM, first compound 10 µM
  viability, T/C: 96.2%
Second compound 10 µM, first compound 0.0316 µM
  viability, T/C: 99.5%
Second compound 10 µM, first compound 0.1 µM
  viability, T/C: 79.3%
Second compound 10 µM, first compound 0.316 µM
  viability, T/C: 103%
Second compound 10 µM, first compound 1 µM
  viability, T/C: 103%
Second compound 10 µM, first compound 3.16 µM
  viability, T/C: 76.9%
Second compound 10 µM, first compound 10 µM
  viability, T/C: 97.5%

## COc1cccc2c1C(=O)c1c(O)c3c(c(O)c1C2=O)CC(O)(C(=O)CO)CC3OC1CC(N)C(O)C(C)O1 (stereo not given)
Compound 0.0316 µM
  viability, T/C: 95.8% and 65% and 107%
Compound 0.1 µM
  viability, T/C: 89.2% and 52.3% and 101%
Compound 0.316 µM
  viability, T/C: 78.2% and 37.8% and 76.8%
Compound 1 µM
  viability, T/C: 60.1% and 25.3% and 60.5%
Compound 3.16 µM
  viability, T/C: 7.28% and 2.34% and 9.83%
Compound 10 µM
  viability, T/C: 0.55% and 0.17% and 0.93%
Curve of compound
  IC50: 1.19 µM and 0.133 µM and 1.06 µM

## COc1cc2cc(C(=O)CCC(=O)O)sc2cc1OC
Compound 0.0316 µM
  viability, T/C: 99% and 105% and 100%
Compound 0.1 µM
  viability, T/C: 97.3% and 102% and 92.3%
Compound 0.316 µM
  viability, T/C: 109% and 107% and 92.4%
Compound 1 µM
  viability, T/C: 95.5% and 105% and 98%
Compound 3.16 µM
  viability, T/C: 105% and 104% and 93.1%
Compound 10 µM
  viability, T/C: 99.8% and 105% and 109%
Curve of compound
  IC50: > 10 µM

## CCCS(=O)(=O)Nc1ccc(F)c(C(=O)c2c[nH]c3ncc(-c4ccc(Cl)cc4)cc23)c1F
Compound 0.0316 µM
  viability, T/C: 106% and 102% and 108%
Compound 0.1 µM
  viability, T/C: 97.4% and 107% (2×)
Compound 0.316 µM
  viability, T/C: 105% and 102% and 97.8%
Compound 1 µM
  viability, T/C: 107% and 102% and 95.8%
Compound 3.16 µM
  viability, T/C: 101% (2×) and 91.2%
Compound 10 µM
  viability, T/C: 10.8% and 13.5% and 20.5%
Curve of compound
  IC50: 6.07 µM and 6.2 µM and 6.12 µM

## CCc1cc2c(N3CCc4c(cc(Cn5ccnc5)cc4-c4cn(C)nc4C(F)(F)F)C3=O)ccnc2c(OC)n1
Compound 0.0316 µM
  viability, T/C: 93.8% and 107% and 110%
Compound 0.1 µM
  viability, T/C: 106% and 93.5% and 101%
Compound 0.316 µM
  viability, T/C: 111% and 89.7% and 94.4%
Compound 1 µM
  viability, T/C: 107% and 75.4% and 60.1%
Compound 3.16 µM
  viability, T/C: 79.1% and 52.8% and 53.1%
Compound 10 µM
  viability, T/C: 49.8% and 47.7% and 43.4%
Curve of compound
  IC50: > 10 µM and 6.52 µM and 2.81 µM
